Test results reported in the CheMixHub viscosity set.

Test: xn = mol fraction of the nth substance listed

CC(C)CO + CC#N
viscosity [mPa·s]
Settings	x2 = 0.1676	x2 = 0.3118	x2 = 0.4373	x2 = 0.5476	x2 = 0.6442	x2 = 0.7304	x2 = 0.8083	x2 = 0.8784	x2 = 0.942	x2 = 0.9432
298.15 K, 101.3 kPa	1.788	1.186	0.87	0.692	0.567	0.483	0.434	0.395	0.371	–
303.15 K, 101 kPa	–	–	–	–	–	–	–	–	–	0.5569
303.15 K, 101.3 kPa	1.582	1.064	0.793	0.634	0.532	0.455	0.411	0.376	0.362	–
308.15 K, 101.3 kPa	1.389	0.962	0.725	0.586	0.494	0.428	0.39	0.358	0.344	–
313.15 K, 101.3 kPa	1.232	0.869	0.664	0.548	0.461	0.405	0.373	0.342	0.324	–

CCCCCOC(=O)CCC + CC(=O)O
viscosity [mPa·s], 101 kPa
Settings	298.15 K	313.15 K
x1 = 0.1013	1.06	0.853
x1 = 0.1499	1.04	0.836
x1 = 0.2007	1.02	0.824
x1 = 0.2515	1.03	0.827
x1 = 0.3014	1.03	0.833
x1 = 0.4	1.04	0.833
x1 = 0.4999	1.05	0.846
x1 = 0.6018	1.07	0.85
x1 = 0.6919	1.08	0.859
x1 = 0.804	1.08	0.86
x1 = 0.8906	1.08	0.861
x1 = 0.9459	1.07	0.859

CCCCCOC(C)=O + CC(=O)O
viscosity [mPa·s], 101 kPa
Settings	x1 = 0.0945	x1 = 0.2018	x1 = 0.3035	x1 = 0.4048	x1 = 0.4599	x1 = 0.5117	x1 = 0.6074	x1 = 0.6957	x1 = 0.7878	x1 = 0.8912
298.15 K	1.055	1.049	0.994	0.978	1.002	1.006	0.98	0.974	0.917	0.881
313.15 K	0.853	0.831	0.799	0.781	0.797	0.798	0.777	0.772	0.734	0.708

Cc1ccccc1O + CC(=O)O
viscosity [mPa·s], 101 kPa
Settings	x2 = 0.167	x2 = 0.3109	x2 = 0.4361	x2 = 0.5461	x2 = 0.6434	x2 = 0.7302	x2 = 0.8081	x2 = 0.8783	x2 = 0.942
298.15 K	5.871	4.718	3.853	3.149	2.615	2.165	1.808	1.529	1.307
308.15 K	4.539	3.776	3.151	2.619	2.204	1.86	1.595	1.328	1.139
318.15 K	3.157	2.82	2.465	2.137	1.812	1.542	1.322	1.135	0.9519

CCCCCOC(C)=O + CC(=O)OCc1ccccc1
Settings	viscosity [mPa·s]
298.15 K, 101 kPa, x1 = 0.5	0.9738

CCCCCOC(C)=O + CC(=O)c1ccccc1
298.15 K, 101 kPa
Settings	viscosity [mPa·s]
x2 = 0.0465	0.802
x2 = 0.0891	0.8174

CN(C)CCO + CC(=O)c1ccccc1
viscosity [mPa·s], 101.3 kPa
Settings	x2 = 0.0879	x2 = 0.1782	x2 = 0.2709	x2 = 0.3663	x2 = 0.4644	x2 = 0.5654	x2 = 0.6693	x2 = 0.7762	x2 = 0.8864
303.15 K	2.331	2.243	2.155	2.067	1.98	1.892	1.804	1.716	1.628
313.15 K	1.952	1.882	1.811	1.741	1.67	1.6	1.529	1.459	1.388
323.15 K	1.689	1.644	1.6	1.555	1.51	1.465	1.42	1.375	1.33

Cc1ccccc1O + CC(=O)c1ccccc1
303.15 K, 101 kPa
Settings	viscosity [mPa·s]
x2 = 0.11	5.369
x2 = 0.2168	4.793
x2 = 0.3155	4.305
x2 = 0.4164	3.832
x2 = 0.4556	3.653
x2 = 0.5575	3.206
x2 = 0.6919	2.635
x2 = 0.7608	2.358
x2 = 0.9488	1.668

CCCCCOC(C)=O + CC(C)=O
298.15 K, 101 kPa
Settings	viscosity [mPa·s]
x2 = 0.17	0.688
x2 = 0.336	0.6224

ClCC(Cl)Cl + CC(C)=O
298.15 K, 101 kPa
Settings	viscosity [mPa·s]
x2 = 0.212	0.91
x2 = 0.366	0.799
x2 = 0.497	0.677
x2 = 0.611	0.577
x2 = 0.704	0.509
x2 = 0.779	0.456
x2 = 0.837	0.411
x2 = 0.949	0.347

C1CCC2=[NH+]CCCN2CC1.c1nc[n-]n1 + CC(C)O
303.15 K, 100 kPa
Settings	viscosity [mPa·s]
x1 = 0.1001	7.85
x1 = 0.2	11.12
x1 = 0.2999	23.38
x1 = 0.4003	47.5
x1 = 0.4989	98.71
x1 = 0.6002	185.2
x1 = 0.7008	298.3
x1 = 0.7993	439.8
x1 = 0.9002	746.1

CC(C)CO + CC(C)O
viscosity [mPa·s], 101 kPa
Settings	x2 = 0.2	x2 = 0.4	x2 = 0.6	x2 = 0.8
293.15 K	3.536	3.163	2.856	2.597
313.15 K	1.923	1.742	1.586	1.449

CCCCCC + CC(C)O
viscosity [mPa·s], 101 kPa
Settings	298.15 K	308.15 K
x2 = 0.0486	0.318	0.26
x2 = 0.1046	0.326	0.268
x2 = 0.1633	0.334	0.276
x2 = 0.272	0.364	0.31
x2 = 0.3138	0.377	0.33
x2 = 0.3636	0.399	0.36
x2 = 0.4036	0.42	0.382
x2 = 0.5026	0.496	0.451
x2 = 0.563	0.557	0.508
x2 = 0.6074	0.613	0.561
x2 = 0.6996	0.763	0.694
x2 = 0.8182	1.06	0.934
x2 = 0.9038	1.4	1.237
x2 = 0.9566	1.723	1.379

CC(C)(C)c1ccccc1 + CC(C)c1ccccc1
303.15 K, 101.3 kPa
Settings	viscosity [mPa·s]
x2 = 0.039	0.9864
x2 = 0.1371	0.9507
x2 = 0.2661	0.9067
x2 = 0.4247	0.8551
x2 = 0.4906	0.8347
x2 = 0.6105	0.7984
x2 = 0.7457	0.7572
x2 = 0.8708	0.7224
x2 = 0.9592	0.6981

CCCCCCCCCCCCCC(=O)OC + CCC1CCCCC1
viscosity [mPa·s], 100 kPa
Settings	x2 = 0.1016	x2 = 0.2015	x2 = 0.3	x2 = 0.4021	x2 = 0.4997	x2 = 0.6005	x2 = 0.7005	x2 = 0.7999	x2 = 0.9
293.15 K	4.029	3.57	3.134	2.705	2.312	1.944	1.626	1.342	1.089
298.15 K	3.577	3.181	2.785	2.419	2.079	1.774	1.489	1.237	1.009
303.15 K	3.173	2.839	2.508	2.191	1.893	1.616	1.367	1.14	0.935
308.15 K	2.804	2.513	2.231	1.948	1.701	1.469	1.248	1.045	0.862
313.15 K	2.532	2.282	2.035	1.797	1.578	1.362	1.163	0.978	0.812
318.15 K	2.328	2.104	1.887	1.666	1.469	1.277	1.097	0.93	0.772
323.15 K	2.1	1.912	1.724	1.541	1.361	1.184	1.018	0.866	0.723

Cc1ccccc1O + CCC(=O)O
viscosity [mPa·s], 101 kPa
Settings	x2 = 0.1315	x2 = 0.2542	x2 = 0.3688	x2 = 0.4761	x2 = 0.5768	x2 = 0.6716	x2 = 0.7608	x2 = 0.845	x2 = 0.9246
298.15 K	6.126	4.978	4.056	3.325	2.73	2.216	1.816	1.505	1.253
308.15 K	4.701	3.949	3.325	2.79	2.329	1.93	1.606	1.33	1.1
318.15 K	3.245	2.875	2.527	2.198	1.885	1.6	1.333	1.126	0.9354

CC(C)CO + CCC(C)O
Settings	viscosity [mPa·s]
313.15 K, 101 kPa, x2 = 0.3008	2.005

Cc1ccccc1O + CCCC(=O)O
viscosity [mPa·s], 101 kPa
Settings	x2 = 0.1104	x2 = 0.2183	x2 = 0.3237	x2 = 0.4268	x2 = 0.5276	x2 = 0.6262	x2 = 0.7227	x2 = 0.8171	x2 = 0.9095
298.15 K	6.565	5.731	4.976	4.317	3.725	3.167	2.698	2.265	1.862
308.15 K	4.973	4.431	3.973	3.534	3.113	2.687	2.294	1.936	1.575
318.15 K	3.375	3.191	2.968	2.723	2.463	2.194	1.914	1.62	1.307

C=CC(=O)OC + CCCCC(C)O
viscosity [mPa·s], 101 kPa
Settings	298.15 K	308.15 K
x1 = 0.05507	3.631	2.614
x1 = 0.1	3.287	2.387
x1 = 0.1554	2.908	2.136
x1 = 0.1998	2.636	1.953
x1 = 0.2554	2.331	1.746
x1 = 0.2999	2.112	1.596
x1 = 0.3554	1.868	1.428
x1 = 0.3999	1.693	1.305
x1 = 0.4555	1.497	1.167
x1 = 0.4999	1.357	1.067
x1 = 0.5554	1.2	0.954
x1 = 0.5999	1.088	0.872
x1 = 0.6551	0.963	0.781
x1 = 0.7	0.872	0.713
x1 = 0.755	0.772	0.638
x1 = 0.7998	0.699	0.583
x1 = 0.8555	0.618	0.522
x1 = 0.8999	0.56	0.477
x1 = 0.9555	0.495	0.426

C=CC(=O)OCCCC + CCCCC(C)O
viscosity [mPa·s], 101 kPa
Settings	298.15 K	308.15 K
x1 = 0.05546	3.742	2.694
x1 = 0.0999	3.477	2.526
x1 = 0.1555	3.172	2.33
x1 = 0.1999	2.948	2.185
x1 = 0.2554	2.69	2.015
x1 = 0.3	2.499	1.889
x1 = 0.3555	2.28	1.743
x1 = 0.4	2.119	1.634
x1 = 0.4553	1.934	1.508
x1 = 0.5	1.796	1.413
x1 = 0.5556	1.639	1.304
x1 = 0.5998	1.523	1.222
x1 = 0.6554	1.39	1.128
x1 = 0.6998	1.291	1.057
x1 = 0.7554	1.178	0.957
x1 = 0.8	1.095	0.914
x1 = 0.8554	0.999	0.844
x1 = 0.9	0.928	0.791
x1 = 0.9555	0.847	0.729

CC1=CCC2CC1C2(C)C (stereo not given) + CCCCCC
298.15 K, 101.33 kPa
Settings	viscosity [mPa·s]
x2 = 0.0422	1.207
x2 = 0.06195	1.165
x2 = 0.1087	1.077
x2 = 0.254	0.842
x2 = 0.3759	0.699
x2 = 0.5049	0.577
x2 = 0.6267	0.487
x2 = 0.7168	0.43
x2 = 0.867	0.355
x2 = 0.9244	0.326
x2 = 0.9625	0.31

CCCCCOC(C)=O + CCCCCC
303.15 K, 101.3 kPa
Settings	viscosity [mPa·s]
x1 = 0.1004	0.303
x1 = 0.2054	0.3329
x1 = 0.298	0.3626
x1 = 0.403	0.4007
x1 = 0.5009	0.443
x1 = 0.6017	0.4937
x1 = 0.6958	0.5456
x1 = 0.8016	0.6101
x1 = 0.8978	0.6752

CCOC(=O)CC + CCCCCC
303.15 K, 101 kPa
Settings	viscosity [mPa·s]
x1 = 0.1832	0.2997
x1 = 0.3971	0.3276
x1 = 0.4989	0.3451
x1 = 0.5988	0.3661
x1 = 0.8005	0.4138
